In the supplement of paper PMC11061612:

Experiments:
AZD1775 = compound: C=CCn1c(=O)c2cnc(Nc3ccc(N4CCN(C)CC4)cc3)nc2n1-c1cccc(C(C)(C)O)n1 [AZD1775]; conditions: max 3 µM
Outline: (§1)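 Cancer cell lines were dosed for 72 hours (final DMSO typically 0.2%) after 24 hours at 37°C and 5% CO2 in 1536-well plates containing 7.5 μl DMEM/F12 or RPMI with 10% FBS. Viability came from CellTiter-Glo 2.0 luminescence, scaled between blank-well and DMSO-well means, and dose responses were fitted to a two-parameter logistic curve with a non-linear mixed effects model. The single-agent IC50 was obtained from this fit.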

MK-2206 = compound: NC1(c2ccc(-c3nc4ccn5c(=O)[nH]nc5c4cc3-c3ccccc3)cc2)CCC1 [MK-2206]; conditions: max 10 µM
Outline: as §1

Paclitaxel = compound: CC(=O)O[C@H]1C(=O)[C@@]2(C)[C@H]([C@H](OC(=O)c3ccccc3)[C@]3(O)C[C@H](OC(=O)[C@H](O)[C@@H](NC(=O)c4ccccc4)c4ccccc4)C(C)=C1C3(C)C)[C@]1(OC(C)=O)CO[C@@H]1C[C@@H]2O [Paclitaxel]; conditions: max 3 µM
Outline: as §1

AZD0156 = compound: CN(C)CCCOc1ccc(-c2ccc3ncc4c(c3c2)n(C2CCOCC2)c(=O)n4C)cn1 [AZD0156]; conditions: max 3 µM
Outline: as §1

Olaparib = compound: O=C(c1cc(Cc2n[nH]c(=O)c3ccccc23)ccc1F)N1CCN(C(=O)C2CC2)CC1 [Olaparib]; conditions: max 10 µM
Outline: as §1

SRA737 = compound: N#Cc1cnc(Nc2cc(NC[C@H]3CNCCO3)c(C(F)(F)F)cn2)cn1 [SRA737]; conditions: max 10 µM
Outline: as §1

Trametinib = compound: CC(=O)Nc1cccc(-n2c(=O)n(C3CC3)c(=O)c3c(Nc4ccc(I)cc4F)n(C)c(=O)c(C)c32)c1 [Trametinib]; conditions: max 1 µM
Outline: as §1

AZD8186 = compound: C[C@@H](Nc1cc(F)cc(F)c1)c1cc(C(=O)N(C)C)cc2c(=O)cc(N3CCOCC3)oc12 [AZD8186]; conditions: max 10 µM
Outline: as §1

Lapatinib = compound: CS(=O)(=O)CCNCc1ccc(-c2ccc3ncnc(Nc4ccc(OCc5cccc(F)c5)c(Cl)c4)c3c2)o1 [Lapatinib]; conditions: max 10 µM
Outline: as §1

AZD6738 = compound: C[C@@H]1COCCN1C2=NC(=NC(=C2)C3(CC3)[S@](=N)(=O)C)C4=C5C=CNC5=NC=C4 [AZD6738]; conditions: max 10 µM
Outline: as §1

AZD4320 = compound: CN(CC[C@H](CSC1=CC=CC=C1)NC2=C(C=C(C=C2)S(=O)(=O)NC(=O)C3=CC=C(C=C3)N4CCC(CC4)[C@H](C5=CC=CC=C5C6=CC=C(C=C6)Cl)O)S(=O)(=O)C(F)(F)F)CCO [AZD4320]; conditions: max 1 µM
Outline: as §1

Carboplatin = compound: C1CC(C1)(C(=O)[O-])C(=O)[O-].N.N.[Pt+2] [Carboplatin]; conditions: max 10 µM
Outline: as §1

Savolitinib = compound: C[C@@H](c1ccc2nccn2c1)n1nnc2ncc(-c3cnn(C)c3)nc21 [Savolitinib]; conditions: max 1 µM
Outline: as §1

SN-38 = compound: CCc1c2c(nc3ccc(O)cc13)-c1cc3c(c(=O)n1C2)COC(=O)[C@]3(O)CC [SN-38]; conditions: max 0.3 µM
Outline: as §1

AZD5153 = compound: COc1nnc2ccc(N3CCC(c4ccc(OCCN5CCN(C)C(=O)[C@H]5C)cc4)CC3)nn12 [AZD5153]; conditions: max 1 µM
Outline: as §1

Alisertib = compound: COc1cc(Nc2ncc3c(n2)-c2ccc(Cl)cc2C(c2c(F)cccc2OC)=NC3)ccc1C(=O)O [Alisertib]; conditions: max 10 µM
Outline: as §1

Gemcitabine = compound: Nc1ccn([C@@H]2O[C@H](CO)[C@@H](O)C2(F)F)c(=O)n1 [Gemcitabine]; conditions: max 0.3 µM
Outline: as §1

Crizotinib = compound: C[C@@H](Oc1cc(-c2cnn(C3CCNCC3)c2)cnc1N)c1c(Cl)ccc(F)c1Cl [Crizotinib]; conditions: max 10 µM
Outline: as §1

Selumetinib = compound: Cn1cnc2c(F)c(Nc3ccc(Br)cc3Cl)c(C(=O)NOCCO)cc21 [Selumetinib]; conditions: max 10 µM
Outline: as §1

AZD7648 = compound: Cc1cc2ncnn2cc1Nc1ncc2c(n1)n(C1CCOCC1)c(=O)n2C [AZD7648]; conditions: max 10 µM
Outline: as §1

Taselisib = compound: Cc1nc(-c2cn3c(n2)-c2ccc(-c4cnn(C(C)(C)C(N)=O)c4)cc2OCC3)n(C(C)C)n1 [Taselisib]; conditions: max 10 µM
Outline: as §1

Dasatinib = compound: CC1=C(C(=CC=C1)Cl)NC(=O)C2=CN=C(S2)NC3=CC(=NC(=N3)C)N4CCN(CC4)CCO [Dasatinib]; conditions: max 2 µM
Outline: as §1

AZD2811 = compound: CCN(CCO)CCCOc1ccc2c(Nc3cc(CC(=O)Nc4cccc(F)c4)[nH]n3)ncnc2c1 [AZD2811]; conditions: max 1 µM
Outline: as §1

5-Fluorouracil = compound: O=c1[nH]cc(F)c(=O)[nH]1 [5-Fluorouracil]; conditions: max 20 µM
Outline: as §1

Palbociclib = compound: CC(=O)c1c(C)c2cnc(Nc3ccc(N4CCNCC4)cn3)nc2n(C2CCCC2)c1=O [Palbociclib]; conditions: max 10 µM
Outline: as §1

AZD5363 = compound: C1CN(CCC1(C(=O)N[C@@H](CCO)C2=CC=C(C=C2)Cl)N)C3=NC=NC4=C3C=CN4 [AZD5363]; conditions: max 10 µM
Outline: as §1

Venetoclax = compound: CC1(C)CCC(CN2CCN(c3ccc(C(=O)NS(=O)(=O)c4ccc(NCC5CCOCC5)c([N+](=O)[O-])c4)c(Oc4cnc5[nH]ccc5c4)c3)CC2)=C(c2ccc(Cl)cc2)C1 [Venetoclax]; conditions: max 1 µM
Outline: as §1

Gefitinib = compound: COc1cc2ncnc(Nc3ccc(F)c(Cl)c3)c2cc1OCCCN1CCOCC1 [Gefitinib]; conditions: max 10 µM
Outline: as §1

Etoposide = compound: COc1cc([C@@H]2c3cc4c(cc3[C@@H](O[C@@H]3O[C@@H]5CO[C@@H](C)O[C@H]5[C@H](O)[C@H]3O)[C@H]3COC(=O)[C@H]23)OCO4)cc(OC)c1O [Etoposide]; conditions: max 10 µM
Outline: as §1

AZD5991 = compound: Cc1c2c(nn1C)CSCc1cc(n(C)n1)CSc1cc(c3ccccc3c1)OCCCc1c(C(=O)O)n(C)c3c-2c(Cl)ccc13 [AZD5991]; conditions: max 1 µM
Outline: as §1

Doxorubicin = compound: COc1cccc2c1C(=O)c1c(O)c3c(c(O)c1C2=O)C[C@@](O)(C(=O)CO)C[C@@H]3O[C@H]1C[C@H](N)[C@H](O)[C@H](C)O1 [Doxorubicin]; conditions: max 1 µM
Outline: as §1

[1] = compound: O=C(Nc1ccc2[nH]nc(-c3ccncc3)c2c1)[C@@H]1CCN(CC(=O)N2CCN(c3ccc(-c4ncccn4)cc3)CC2)C1; conditions: max 5 µM
Outline: as §1

Prexasertib = compound: COc1cccc(OCCCN)c1-c1cc(Nc2cnc(C#N)cn2)n[nH]1 [Prexasertib]; conditions: max 1 µM
Outline: as §1

SG3199 = compound: CC1=CN2[C@@H](C1)C=NC3=CC(=C(C=C3C2=O)OC)OCCCCCOC4=C(C=C5C(=C4)N=C[C@@H]6CC(=CN6C5=O)C)OC [SG3199]; conditions: max 0.001 µM
Outline: as §1

AZD1390 = compound: CC(C)n1c(=O)n(C)c2cnc3cc(F)c(-c4ccc(OCCCN5CCCCC5)nc4)cc3c21 [AZD1390]; conditions: max 0.3 µM
Outline: as §1

Row | Cell Line | IC50, cell viability 72 h (AZD1775) | IC50, cell viability 72 h (MK-2206) | IC50, cell viability 72 h (Paclitaxel) | IC50, cell viability 72 h (AZD0156) | IC50, cell viability 72 h (Olaparib) | IC50, cell viability 72 h (SRA737) | IC50, cell viability 72 h (Trametinib) | IC50, cell viability 72 h (AZD8186) | IC50, cell viability 72 h (Lapatinib) | IC50, cell viability 72 h (AZD6738) | IC50, cell viability 72 h (AZD4320) | IC50, cell viability 72 h (Carboplatin) | IC50, cell viability 72 h (Savolitinib) | IC50, cell viability 72 h (SN-38) | IC50, cell viability 72 h (AZD5153) | IC50, cell viability 72 h (Alisertib) | IC50, cell viability 72 h (Gemcitabine) | IC50, cell viability 72 h (Crizotinib) | IC50, cell viability 72 h (Selumetinib) | IC50, cell viability 72 h (AZD7648) | IC50, cell viability 72 h (Taselisib) | IC50, cell viability 72 h (Dasatinib) | IC50, cell viability 72 h (AZD2811) | IC50, cell viability 72 h (5-Fluorouracil) | IC50, cell viability 72 h (Palbociclib) | IC50, cell viability 72 h (AZD5363) | IC50, cell viability 72 h (Venetoclax) | IC50, cell viability 72 h (Gefitinib) | IC50, cell viability 72 h (Etoposide) | IC50, cell viability 72 h (AZD5991) | IC50, cell viability 72 h (Doxorubicin) | IC50, cell viability 72 h [1] | IC50, cell viability 72 h (Prexasertib) | IC50, cell viability 72 h (SG3199) | IC50, cell viability 72 h (AZD1390)
1 | CCK-81 (Colorectal Carcinoma) | 661 nM | > 10000 nM | 101 nM | > 3000 nM | > 10000 nM | 876 nM | 208 nM | > 10000 nM | 484 nM | 1570 nM | > 1000 nM | > 10000 nM | > 1000 nM | 76.7 nM | 160 nM | > 10000 nM | 50.3 nM | 8320 nM | 9240 nM | > 10000 nM | 1180 nM | > 2000 nM | > 1000 nM | 7320 nM | > 10000 nM | > 10000 nM | > 1000 nM | 997 nM | > 10000 nM | 634 nM | > 1000 nM | 4810 nM | 10.7 nM | > 1 nM | > 300 nM
2 | COLO-320-HSR (Colorectal Carcinoma) | 459 nM | > 10000 nM | 411 nM | > 3000 nM | > 10000 nM | > 10000 nM | > 1000 nM | > 10000 nM | > 10000 nM | 7940 nM | > 1000 nM | > 10000 nM | > 1000 nM | > 300 nM | > 1000 nM | > 10000 nM | 260 nM | > 10000 nM | > 10000 nM | > 10000 nM | > 10000 nM | > 2000 nM | > 1000 nM | > 20000 nM | > 10000 nM | > 10000 nM | > 1000 nM | > 10000 nM | > 10000 nM | 489 nM | > 1000 nM | > 5000 nM | 232 nM | > 1 nM | > 300 nM
3 | ECC10 (Gastric Carcinoma) | 1130 nM | > 10000 nM | 10.9 nM | > 3000 nM | > 10000 nM | > 10000 nM | 237 nM | > 10000 nM | 6710 nM | > 10000 nM | 21.8 nM | > 10000 nM | > 1000 nM | 7.73 nM | 139 nM | 200 nM | 50 nM | 4920 nM | > 10000 nM | > 10000 nM | > 10000 nM | > 2000 nM | 25.2 nM | > 20000 nM | > 10000 nM | > 10000 nM | 230 nM | > 10000 nM | 1860 nM | 713 nM | 131 nM | 375 nM | 324 nM | > 1 nM | > 300 nM
4 | IGR-37 (Melanoma) | 846 nM | > 10000 nM | 86.5 nM | > 3000 nM | > 10000 nM | 3480 nM | 3.42 nM | > 10000 nM | > 10000 nM | 5360 nM | > 1000 nM | > 10000 nM | > 1000 nM | 26.2 nM | 846 nM | > 10000 nM | 45.9 nM | > 10000 nM | 339 nM | > 10000 nM | 4360 nM | > 2000 nM | > 1000 nM | > 20000 nM | > 10000 nM | > 10000 nM | > 1000 nM | > 10000 nM | > 10000 nM | > 1000 nM | 746 nM | 361 nM | 12.9 nM | > 1 nM | > 300 nM
5 | KARPAS-422 (B-Cell Non-Hodgkin's Lymphoma) | 768 nM | 1070 nM | 957 nM | > 3000 nM | > 10000 nM | > 10000 nM | > 1000 nM | 644 nM | > 10000 nM | 9320 nM | 230 nM | > 10000 nM | > 1000 nM | 17 nM | 144 nM | > 10000 nM | 92.2 nM | > 10000 nM | > 10000 nM | > 10000 nM | 4630 nM | 1510 nM | > 1000 nM | > 20000 nM | 3050 nM | 3560 nM | 644 nM | > 10000 nM | 3440 nM | 206 nM | 634 nM | > 5000 nM | 17.6 nM | > 1 nM | > 300 nM
